In paper PMC11617653, “Macrocyclic Inhibitors Targeting the Prime Site of the Fibrinolytic Serine Protease Plasmin” (Chemmedchem, 2024):
Several values for one entry are separate records, joined by “and”; a condition that tells them apart may be missing. Equal entries are not always repeated.

Legend:
human plasmin = target: T1, human plasmin (Homo sapiens, UniProt P00747); assay: Inhibition of human plasmin, fluorogenic substrate Mes-DArg-Phe-Arg-AMC; format: biochemical
T1 construct: purchased Calbiochem
Protocol: All inhibitors prepared in this study act as reversible competitive plasmin inhibitors, their K i values were calculated by fitting the steady‐state velocities as function of the inhibitor concentrations using equation 1. 4‐aminophenylalanine (Phe(4‐NH2)) was incorporated as P1’ residue in the first inhibitor series, which enabled a macrocyclization via amide bond formation from its side chain amino group using various linker segments and P2’ residues (Table 1). […] The improved potency of SFTI‐1 analogues with basic P2’ residues[9] stimulated the incorporation of Arg in that position leading to inhibitor 4 with a slightly stronger inhibitory potency. A significant improvement could be achieved when using 3‐ or 4‐aminophenylacetic acid as P2’ group in combination with elongated linker residues (5‐6). […] However, inhibitor 9 is a twofold stronger plasmin inhibitor compared to its analogue 8.
For these inhibitors the steady‐state velocities were calculated by fitting the progress curves to equation 2 providing an additional apparent first‐order rate constant k obs for each curve. The steady‐state rates were used for K i determination with equation 1 and the k obs values for the calculation of the association rate constants k on according to equation 3. The dissociation rate constant k off was calculated from the known K i and k on values using equation 4. The enzyme kinetic evaluation of slow‐binding inhibitors of plasmin has already been described in detail in our two previous publications.[11, 12]
All measurements were conducted as triplicates in black 96‐well FluoroNunc MaxiSorp plates (Nunc, Langenselbold, Germany) and suitable fluorogenic substrates at room temperature. […] Each well contained a total volume of 180 μL consisting of 100 μL of inhibitor dissolved in buffer, 40 μL of the substrate Mes‐DArg‐Phe‐Arg‐AMC[11] (100 μM in assay, KM=16.1 μM) dissolved in water and 40 μL of plasmin solution (0.27 nM in assay). The following equations were used for the enzyme kinetic analysis as described in the results section and in our previous publications.[11, 12] (1) [drawing 71] (2) [drawing 72] (3) [drawing 73] (4) [drawing 74]

plasma kallikrein (PK) = plasma kallikrein (PK) (Homo sapiens, UniProt P03952); assay: Selectivity: inhibition of plasma kallikrein; format: biochemical; details: for PK selectivity index K i(protease)/Ki(plasmin): in brackets; for Ki: read-out: PK K i
Protocol: (§1) For these three proteases a selectivity index (SI=K i(protease)/K i(plasmin)) was calculated, which is provided in brackets after the inhibition constants (Table 3).
(§2) The measurements with the related trypsin‐like serine proteases trypsin, plasma kallikrein, factor XIa, thrombin, activated protein Ca and factor Xa used in selectivity studies were performed as described previously.[11, 12]

factor XIa (fXIa) = factor XIa (fXIa) (Homo sapiens, UniProt P03951); assay: Selectivity: inhibition of factor XIa; format: biochemical; details: for fXIa selectivity index K i(protease)/Ki(plasmin): in brackets; for Ki: read-out: fXIa K i
Protocol: as §1, §2

thrombin = thrombin (Homo sapiens, UniProt P00734); assay: Selectivity: inhibition of thrombin; format: biochemical; details: deduced from pre-assays with only three inhibitor concentrations; read-out: Thrombin K i
Protocol: as §1, §2

[1] = target: activated protein C (aPC) (Homo sapiens, UniProt P04070); assay: Selectivity: inhibition of activated protein C; format: biochemical; details: deduced from pre-assays with only three inhibitor concentrations; read-out: aPC K i
Protocol: as §1, §2

factor Xa (fXa) = factor Xa (fXa) (Homo sapiens, UniProt P00742); assay: Selectivity: inhibition of factor Xa; format: biochemical; details: deduced from pre-assays with only three inhibitor concentrations; read-out: fXa K i
Protocol: as §1, §2

PK = details: no reference given; read-out: K i, PK; cited from earlier work
[2] = Water solubility (qualitative comparison); details: compared to inhibitor 28
plasmin = details: read-out: IC50, plasmin; Figure 1; cited from earlier work
[3] = K i (nM), inhibition of plasmin, series two, substituted Bpa in P1', and acyclic analogues, steady-state velocities, equation 1
[4] = Plasmin K i, Table 3 selectivity

Sequence of factor XIa (fXIa) (P03951 19-387): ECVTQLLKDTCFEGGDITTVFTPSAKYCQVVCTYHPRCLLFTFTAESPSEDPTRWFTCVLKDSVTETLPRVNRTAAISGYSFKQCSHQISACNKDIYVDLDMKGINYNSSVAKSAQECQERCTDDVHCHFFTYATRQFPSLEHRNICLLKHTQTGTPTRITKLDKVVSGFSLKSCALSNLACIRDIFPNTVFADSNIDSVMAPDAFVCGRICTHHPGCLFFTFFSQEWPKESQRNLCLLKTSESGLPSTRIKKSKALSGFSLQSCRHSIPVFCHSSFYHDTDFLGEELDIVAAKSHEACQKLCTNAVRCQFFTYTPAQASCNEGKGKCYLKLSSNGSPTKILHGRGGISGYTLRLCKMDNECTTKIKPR
Sequence of factor XIa (fXIa) (P03951 388-625): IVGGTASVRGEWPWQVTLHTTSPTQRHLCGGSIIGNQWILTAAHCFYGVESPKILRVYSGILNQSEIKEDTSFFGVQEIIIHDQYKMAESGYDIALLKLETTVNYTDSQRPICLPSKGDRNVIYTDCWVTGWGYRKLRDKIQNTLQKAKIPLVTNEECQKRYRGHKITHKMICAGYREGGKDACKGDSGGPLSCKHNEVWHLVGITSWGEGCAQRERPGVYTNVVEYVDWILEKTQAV
Sequence of plasma kallikrein (PK) (P03952 391-638): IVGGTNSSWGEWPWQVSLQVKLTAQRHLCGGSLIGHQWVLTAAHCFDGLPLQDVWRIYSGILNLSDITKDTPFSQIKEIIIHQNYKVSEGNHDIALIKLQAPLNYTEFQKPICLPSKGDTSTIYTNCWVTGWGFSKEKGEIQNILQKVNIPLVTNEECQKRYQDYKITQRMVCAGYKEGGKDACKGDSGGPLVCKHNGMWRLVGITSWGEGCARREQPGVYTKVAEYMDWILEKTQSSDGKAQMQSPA
Sequence of plasma kallikrein (PK) (P03952 20-390): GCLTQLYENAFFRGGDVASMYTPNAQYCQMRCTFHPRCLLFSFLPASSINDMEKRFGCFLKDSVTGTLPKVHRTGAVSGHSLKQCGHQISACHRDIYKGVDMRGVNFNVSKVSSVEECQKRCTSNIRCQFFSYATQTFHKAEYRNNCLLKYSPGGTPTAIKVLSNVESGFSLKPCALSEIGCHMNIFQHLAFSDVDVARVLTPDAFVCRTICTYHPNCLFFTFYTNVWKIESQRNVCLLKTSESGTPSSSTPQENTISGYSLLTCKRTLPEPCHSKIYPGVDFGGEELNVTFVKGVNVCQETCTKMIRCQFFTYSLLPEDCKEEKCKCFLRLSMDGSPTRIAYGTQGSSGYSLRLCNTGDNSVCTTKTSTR
Sequence of factor Xa (fXa) (P00742 41-179): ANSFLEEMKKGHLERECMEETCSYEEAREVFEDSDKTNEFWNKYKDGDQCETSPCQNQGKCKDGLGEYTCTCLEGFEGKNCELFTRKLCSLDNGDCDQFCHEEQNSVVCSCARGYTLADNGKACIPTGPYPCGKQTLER
Sequence of factor Xa (fXa) (P00742 235-488): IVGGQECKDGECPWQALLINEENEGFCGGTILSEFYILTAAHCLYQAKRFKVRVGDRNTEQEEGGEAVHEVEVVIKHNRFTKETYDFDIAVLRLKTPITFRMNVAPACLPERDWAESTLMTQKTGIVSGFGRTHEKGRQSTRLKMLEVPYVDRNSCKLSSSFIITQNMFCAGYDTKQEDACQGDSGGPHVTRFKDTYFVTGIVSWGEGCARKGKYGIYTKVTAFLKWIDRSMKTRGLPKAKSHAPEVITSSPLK
Sequence of activated protein C (aPC) (P04070 43-197): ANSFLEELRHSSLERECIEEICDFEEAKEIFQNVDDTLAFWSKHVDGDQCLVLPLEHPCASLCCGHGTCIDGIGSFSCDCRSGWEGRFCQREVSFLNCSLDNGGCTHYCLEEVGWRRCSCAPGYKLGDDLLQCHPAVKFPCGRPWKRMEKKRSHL
Sequence of activated protein C (aPC) (P04070 212-461): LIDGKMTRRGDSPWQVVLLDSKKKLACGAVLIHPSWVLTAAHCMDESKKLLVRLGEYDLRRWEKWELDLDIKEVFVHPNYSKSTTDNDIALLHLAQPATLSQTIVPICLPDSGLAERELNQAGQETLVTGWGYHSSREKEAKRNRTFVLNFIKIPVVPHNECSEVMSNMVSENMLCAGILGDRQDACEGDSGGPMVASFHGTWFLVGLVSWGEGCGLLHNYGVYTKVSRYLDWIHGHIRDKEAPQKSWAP
T1 sequence (P00747 581-810): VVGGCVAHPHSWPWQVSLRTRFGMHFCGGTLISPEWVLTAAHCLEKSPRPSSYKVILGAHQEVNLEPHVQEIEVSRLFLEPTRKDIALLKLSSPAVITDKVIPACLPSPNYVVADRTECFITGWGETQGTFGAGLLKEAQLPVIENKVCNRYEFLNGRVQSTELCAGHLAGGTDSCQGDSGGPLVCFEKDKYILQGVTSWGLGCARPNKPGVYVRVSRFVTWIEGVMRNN
T1 sequence (P00747 97-580): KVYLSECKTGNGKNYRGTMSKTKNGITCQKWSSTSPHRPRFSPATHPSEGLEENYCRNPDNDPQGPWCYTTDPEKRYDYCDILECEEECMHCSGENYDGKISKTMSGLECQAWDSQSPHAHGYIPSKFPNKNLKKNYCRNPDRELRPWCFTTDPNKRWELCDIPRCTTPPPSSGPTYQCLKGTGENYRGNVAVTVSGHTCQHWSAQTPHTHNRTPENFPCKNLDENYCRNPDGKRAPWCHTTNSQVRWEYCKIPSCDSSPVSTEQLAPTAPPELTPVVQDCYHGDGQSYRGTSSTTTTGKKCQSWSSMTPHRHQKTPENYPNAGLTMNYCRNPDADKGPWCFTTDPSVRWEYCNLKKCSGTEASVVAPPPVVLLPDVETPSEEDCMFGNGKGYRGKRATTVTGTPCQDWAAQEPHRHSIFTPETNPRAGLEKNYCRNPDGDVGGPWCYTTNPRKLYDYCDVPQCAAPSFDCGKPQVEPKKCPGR

## Cc1ccc2cc1NC(=O)CNC(=O)CCNC(=O)c1ccc3cc(ccc3c1)NC(=O)[C@@H](NC(=O)[C@H]1CC[C@H](CN)CC1)Cc1ccc-2cc1 [inhibitor 45]
Human plasmin; [3]
  Ki: 2.53 ± 0.23 nM
Human plasmin; [4]
  Ki: 2.53 nM
Plasma kallikrein (PK)
  PK selectivity index K i(protease)/Ki(plasmin): 62
  Ki: 156 ± 35 nM
Factor XIa (fXIa)
  fXIa selectivity index K i(protease)/Ki(plasmin): 137
  Ki: 320 ± 50 nM
thrombin
  Ki: > 40000 nM
[1]
  Ki: > 4000 nM
Factor Xa (fXa)
  Ki: > 40000 nM

## Cc1ccc2cc1NC(=O)CNC(=O)CCCNC(=O)Cc1cccc(c1)NC(=O)[C@@H](NC(=O)[C@H]1CC[C@H](CN)CC1)Cc1ccc-2cc1 [inhibitor 40]
Human plasmin; [3]
  Ki: 9.47 ± 0.75 nM
Human plasmin; [4]
  Ki: 9.47 nM
Plasma kallikrein (PK)
  PK selectivity index K i(protease)/Ki(plasmin): 14
  Ki: 120 ± 10 nM
Factor XIa (fXIa)
  fXIa selectivity index K i(protease)/Ki(plasmin): 13
  Ki: 110 ± 10 nM
thrombin
  Ki: > 80000 nM
[1]
  Ki: > 40000 nM
Factor Xa (fXa)
  Ki: > 9000 nM

## aprotinin
PK
  Ki: 30 nM

## Cc1ccc2cc1NC(=O)C(CCc1ccccc1)NC(=O)CCCNC(=O)Cc1ccc(cc1)NC(=O)C(NC(=O)C1CCC(CN)CC1)Cc1ccc-2cc1 (stereo not drawn) [inhibitor 31]
Human plasmin; [3]
  Ki: 0.831 ± 0.154 nM
Human plasmin; [4]
  Ki: 0.831 nM
Plasma kallikrein (PK)
  PK selectivity index K i(protease)/Ki(plasmin): 89
  Ki: 67 ± 4 nM
Factor XIa (fXIa)
  fXIa selectivity index K i(protease)/Ki(plasmin): 117
  Ki: 88 ± 23 nM
thrombin
  Ki: > 75000 nM
[1]
  Ki: > 10000 nM
Factor Xa (fXa)
  Ki: > 80000 nM
[2]
  water solubility: reduced water solubility

## CCCCCCCCNC(=O)[C@H](Cc1ccc(OCc2ccncc2)cc1)NC(=O)[C@H]1CC[C@H](CN)CC1 [YO-2]
plasmin
  IC50: 240 nM

## CC(C)NC(=O)c1ccc2cc1NC(=O)CNC(=O)CCCNC(=O)Cc1ccc(cc1)NC(=O)C(NC(=O)C1CCC(CN)CC1)Cc1ccc-2cc1 [inhibitor 33, (S)‐4‐((1r,4S)‐4‐(aminomethyl)cyclohexane‐1‐carboxamido)‐N‐isopropyl‐5,9,14,17‐tetraoxo‐6,10,15,18‐tetraaza‐1(1,3),2,7(1,4)‐tribenzenacyclooctadecaphane‐14‐carboxamide]
Human plasmin; [3]
  Ki: 0.52 nM and 0.524 nM
Human plasmin; [4]
  Ki: 0.524 nM
Plasma kallikrein (PK)
  PK selectivity index K i(protease)/Ki(plasmin): 21
  Ki: 9.4 ± 2.1 nM
Factor XIa (fXIa)
  fXIa selectivity index K i(protease)/Ki(plasmin): 18
  Ki: 8.1 ± 1.6 nM
thrombin
  Ki: > 45000 nM
[1]
  Ki: > 35000 nM
Factor Xa (fXa)
  Ki: > 10000 nM
